Laboratory results reported in patent publication US8481544B2, “Antibacterial compositions” (Biota Europe Limited, priority 2006, dated 2013).
Values after ≈ are worked out from the molar mass of the structure shown.

system: Enterococcus faecalis ATCC 29212; experiment: MIC against Enterococcus faecalis ATCC 29212; assay type: cell-based; settings: ATCC29212; Enterococcus faecalis ATCC 29212; read-out: MICs against Enterococcus faecalis, Activity
Description: Institute. Methods for Dilution Antimicrobial Susceptibility Tests for Bacteria That Grow Aerobically; Approved Standard—Seventh Edition. Document M7-A7. CLSI, Wayne, Pa., 2006; Clinical Laboratories and Standards Institute. Methods for Antimicrobial Susceptibility Testing of Anaerobic Bacteria; Approved Standard—Sixth Edition. Document M11-A6. CLSI, Wayne, Pa., 2004).
Compounds of this invention were tested for antimicrobial activity by susceptibility testing in liquid or on solid media. MICs for compounds against each strain were determined by the broth microdilution or agar dilution method according to the guidelines of the Clinical Laboratories and Standards Institute, formerly the National Committee for Clinical Laboratory Standards (Clinical Laboratories and Standards Institute. Methods for Dilution Antimicrobial Susceptibility Tests for Bacteria That Grow Aerobically; Approved Standard—Seventh Edition. Document M7-A7. CLSI, Wayne, Pa., 2006; Clinical Laboratories and Standards Institute. Methods for Antimicrobial Susceptibility Testing of Anaerobic Bacteria; Approved Standard—Sixth Edition. Document M11-A6. CLSI, Wayne, Pa., 2004).

MIC [mg/L]	Compound
< 0.25	CCNC(=O)Nc1nc2cc(-c3cccnc3)cc(-c3ccc4cc[nH]c4n3)c2s1 [Example 111, 1-Ethyl-3-[5-pyridin-3-yl-7-(1H-pyrrolo[2,3-b]pyridin-6-yl)-benzothiazol-2-yl]-urea]
< 0.25	CCNC(=O)Nc1nc2cc(-c3cccnc3)cc(-c3nccs3)c2s1 [Example 92, 1-Ethyl-3-(5-pyridin-3-yl-7-thiazol-2-yl-benzothiazol-2-yl)-urea]
0.25 to 1 (≈ 0.662 to 2.65 µM)	CCNC(=O)Nc1nc2cc(-c3cccnc3)cc(-c3cccn3C)c2s1 [Example 11, 1-Ethyl-3-[7-(1-methyl-1H-pyrrol-2-yl)-5-pyridin-3-yl-benzothiazol-2-yl]-urea]
0.25 to 1 (≈ 0.564 to 2.26 µM)	CCNC(=O)Nc1nc2cc(-c3cccnc3)cc(-c3ncccc3C(F)(F)F)c2s1 [Example 128, 1-Ethyl-3-[5-pyridin-3-yl-7-(3-trifluoromethyl-pyridin-2-yl)-benzothiazol-2-yl]-urea]
0.25 to 1 (≈ 0.618 to 2.47 µM)	CCNC(=O)Nc1nc2cc(-c3cccnc3)cc(-c3ccc(OC)cc3)c2s1 [Example 84, 1-Ethyl-3-[7-(4-methoxy-phenyl)-5-pyridin-3-yl-benzothiazol-2-yl]-urea]
< 0.25	CCNC(=O)Nc1nc2cc(-c3cccnc3)cc(-c3cc(OC)ncn3)c2s1 [Example 122, 1-Ethyl-3-[7-(6-methoxy-pyrimidin-4-yl)-5-pyridin-3-yl-benzothiazol-2-yl]-urea]
0.25 to 1 (≈ 0.618 to 2.47 µM)	CCNC(=O)Nc1nc2cc(-c3cccnc3)cc(-c3cccc(OC)c3)c2s1 [Example 86, 1-Ethyl-3-[7-(3-methoxy-phenyl)-5-pyridin-3-yl-benzothiazol-2-yl]-urea]
< 0.25	CCNC(=O)Nc1nc2cc(-c3cccnc3)cc(-c3cnccn3)c2s1 [Example 101, 1-Ethyl-3-(7-pyrazin-2-yl-5-pyridin-3-yl-benzothiazol-2-yl)-urea]
0.25 to 1 (≈ 0.686 to 2.74 µM)	CCNC(=O)Nc1nc2cc(-c3cccnc3)cc(-c3cn[nH]c3)c2s1 [Example 80, 1-Ethyl-3-[7-(1H-pyrazol-4-yl)-5-pyridin-3-yl-benzothiazol-2-yl]-urea]
< 0.25	CCNC(=O)Nc1nc2cc(-c3ccc(NC(C)=O)nc3)cc(-c3ccc(C#N)cn3)c2s1 [Example 136, N-{5-[7-(5-Cyano-pyridin-2-yl)-2-(3-ethyl-ureido)-benzothiazol-5-yl]-pyridin-2-yl}-acetamide]
< 0.25	CCNC(=O)Nc1nc2cc(-c3cccnc3)cc(-c3nccc(N)n3)c2s1 [Example 110, 1-[7-(4-Amino-pyrimidin-2-yl)-5-pyridin-3-yl-benzothiazol-2-yl]-3-ethyl-urea]
0.25 to 1 (≈ 0.581 to 2.32 µM)	CCNC(=O)Nc1nc2cc(-c3cnc4c(c3)CNCC4)cc(-c3ccccn3)c2s1 [Example 65, 1-Ethyl-3-[7-pyridin-2-yl-5-(5,6,7,8-tetrahydro-[1,6]naphthyridin-3-yl)-benzothiazol-2-yl]-urea]
< 0.25	CCNC(=O)Nc1nc2cc(-c3ccc(NC(C)=O)nc3)cc(-c3ccccn3)c2s1 [Example 133, N-{5-[2-(3-Ethyl-ureido)-7-pyridin-2-yl-benzothiazol-5-yl]-pyridin-2-yl}-acetamide]
0.25 to 1 (≈ 0.61 to 2.44 µM)	CCNC(=O)Nc1nc2cc(-c3cncc(Cl)c3)cc(-c3cccnc3)c2s1 [Example 48, 1-[5-(5-Chloro-pyridin-3-yl)-7-pyridin-3-yl-benzothiazol-2-yl]-3-ethyl-urea]
2 to 16 (≈ 4.62 to 37 µM)	CCNC(=O)Nc1nc2cc(-c3cccnc3)cc(-c3ccc(CN(C)C)cn3)c2s1 [Example 132, 1-[7-(5-Dimethylaminomethyl-pyridin-2-yl)-5-pyridin-3-yl-benzothiazol-2-yl]-3-ethyl-urea]
< 0.25	CCNC(=O)Nc1nc2cc(-c3ccc(CO)nc3)cc(-c3ccccn3)c2s1 [Example 34, 1-Ethyl-3-[5-(6-hydroxymethyl-pyridin-3-yl)-7-pyridin-2-yl-benzothiazol-2-yl]-urea]
0.25 to 1 (≈ 0.668 to 2.67 µM)	CCNC(=O)Nc1nc2cc(-c3cccnc3)cc(-c3ccccc3)c2s1 [Example 78, 1-Ethyl-3-(7-phenyl-5-pyridin-3-yl-benzothiazol-2-yl)-urea]
2 to 16 (≈ 3.5 to 28 µM)	CCNC(=O)Nc1nc2cc(-c3ccc(CN4CCOCC4)cc3)cc(-c3ccc(CN4CCOCC4)cc3)c2s1 [Example 146, 1-[5,7-Bis-(4-morpholin-4-ylmethyl-phenyl)-benzothiazol-2-yl]-3-ethyl-urea]
0.25 to 1 (≈ 0.684 to 2.74 µM)	CCNC(=O)Nc1nc2cc(-c3cccnc3)cc(-c3ncco3)c2s1 [Example 165, 1-Ethyl-3-(7-oxazol-2-yl-5-pyridin-3-yl-benzothiazol-2-yl)-urea]
0.25 to 1 (≈ 0.664 to 2.66 µM)	CCNC(=O)Nc1nc2cc(-c3cccnc3)cc(-c3cncnc3)c2s1 [Example 159, 1-Ethyl-3-(5-pyridin-3-yl-7-pyrimidin-5-yl-benzothiazol-2-yl)-urea]

MIC [mg/L]	Compound
2 to 16 (≈ 5.33 to 42.6 µM)	CCNC(=O)Nc1nc2cc(-c3ccccn3)cc(-c3cccnc3)c2s1 [Example 155, 1-Ethyl-3-(5-pyridin-2-yl-7-pyridin-3-yl-benzothiazol-2-yl)-urea]
2 to 16 (≈ 5.2 to 41.6 µM)	CCNC(=O)Nc1nc2cc(-c3cccnc3)cc(NC(=O)NCC)c2s1 [Example 150, 1-Ethyl-3-[2-(3-ethyl-ureido)-5-pyridin-3-yl-benzothiazol-7-yl]-urea]
0.25 to 1 (≈ 0.603 to 2.41 µM)	CCNC(=O)Nc1nc2cc(-c3cnc4[nH]ccc4c3)cc(-c3cccnc3)c2s1 [Example 49, 1-Ethyl-3-[7-pyridin-3-yl-5-(1H-pyrrolo[2,3-b]pyridin-5-yl)-benzothiazol-2-yl]-urea]
0.25 to 1 (≈ 0.739 to 2.95 µM)	CCNC(=O)Nc1nc2cc(-c3cccnc3)cc(C3CC3)c2s1 [Example 79, 1-(7-Cyclopropyl-5-pyridin-3-yl-benzothiazol-2-yl)-3-ethyl-urea]
< 0.25	CCNC(=O)Nc1nc2cc(-n3ccnc3)cc(-c3ccccn3)c2s1 [Example 142, 1-Ethyl-3-(5-imidazol-1-yl-7-pyridin-2-yl-benzothiazol-2-yl)-urea]
< 0.25	CCNC(=O)Nc1nc2cc(-c3cccnc3)cc(-c3ncccc3C#N)c2s1 [Example 95, 1-[7-(3-Cyano-pyridin-2-yl)-5-pyridin-3-yl-benzothiazol-2-yl]-3-ethyl-urea]
< 0.25	CCNC(=O)Nc1nc2cc(-c3cccnc3)cc(-c3ncccc3OC)c2s1 [Example 118, 1-Ethyl-3-[7-(3-methoxy-pyridin-2-yl)-5-pyridin-3-yl-benzothiazol-2-yl]-urea]
0.25 to 1 (≈ 0.608 to 2.43 µM)	CCNC(=O)Nc1nc2cc(-c3cccnc3)cc(-c3csc(OC)n3)c2s1 [Example 157, 1-Ethyl-3-[7-(2-methoxy-thiazol-4-yl)-5-pyridin-3-yl-benzothiazol-2-yl]-urea]
0.25 to 1 (≈ 0.48 to 1.92 µM)	CCNC(=O)Nc1nc2cc(-c3ccc(CN(CCOC)CCOC)nc3)cc(-c3ccccn3)c2s1 [Example 60, 1-[5-(6-{[Bis-(2-methoxy-ethyl)-amino]-methyl}-pyridin-3-yl)-7-pyridin-2-yl-benzothiazol-2-yl]-3-ethyl-urea]
< 0.25	CCNC(=O)Nc1nc2cc(-c3cccnc3)cc(-c3cncc(N)n3)c2s1 [Example 123, 1-[7-(6-Amino-pyrazin-2-yl)-5-pyridin-3-yl-benzothiazol-2-yl]-3-ethyl-urea]
0.25 to 1 (≈ 0.61 to 2.44 µM)	CCNC(=O)Nc1nc2cc(-c3cccnc3)cc(-c3sc(C)nc3C)c2s1 [Example 102, 1-[7-(2,4-Dimethyl-thiazol-5-yl)-5-pyridin-3-yl-benzothiazol-2-yl]-3-ethyl-urea]
2 to 16 (≈ 5.11 to 40.9 µM)	CCNC(=O)Nc1nc2cc(-c3cccnc3)cc(-c3cccc(O)n3)c2s1 [Example 173, 1-Ethyl-3-[7-(6-hydroxy-pyridin-2-yl)-5-pyridin-3-yl-benzothiazol-2-yl]-urea]
2 to 16 (≈ 5.11 to 40.9 µM)	CCNC(=O)Nc1nc2cc(-n3ccccc3=O)cc(-c3cccnc3)c2s1 [Example 141, 1-Ethyl-3-[5-(2-oxo-2H-pyridin-1-yl)-7-pyridin-3-yl-benzothiazol-2-yl]-urea]
2 to 16 (≈ 4.22 to 33.8 µM)	CCNC(=O)Nc1nc2cc(-c3ccc(N4CCN(C)CC4)nc3)cc(-c3cccnc3)c2s1 [Example 23, 1-Ethyl-3-{5-[6-(4-methyl-piperazin-1-yl)-pyridin-3-yl]-7-pyridin-3-yl-benzothiazol-2-yl}-urea]
0.25 to 1 (≈ 0.597 to 2.39 µM)	CCNC(=O)Nc1nc2cc(-c3cccnc3)cc(-c3cccc(N(C)C)n3)c2s1 [Example 168, 1-[7-(6-Dimethylamino-pyridin-2-yl)-5-pyridin-3-yl-benzothiazol-2-yl]-3-ethyl-urea]
2 to 16 (≈ 5.12 to 41 µM)	CCNC(=O)Nc1nc2cc(-c3ccc(C)nn3)cc(-c3cccnc3)c2s1 [Example 46, 1-Ethyl-3-[5-(6-methyl-pyridazin-3-yl)-7-pyridin-3-yl-benzothiazol-2-yl]-urea]
0.25 to 1 (≈ 0.635 to 2.54 µM)	CCNC(=O)Nc1nc2cc(-c3cccnc3)cc(-c3cccnc3F)c2s1 [Example 76, 1-Ethyl-3-[7-(2-fluoro-pyridin-3-yl)-5-pyridin-3-yl-benzothiazol-2-yl]-urea]
0.25 to 1 (≈ 0.739 to 2.95 µM)	C=CCc1cc(-c2cccnc2)cc2nc(NC(=O)NCC)sc12 [Example 156, 1-(7-Allyl-5-pyridin-3-yl-benzothiazol-2-yl)-3-ethyl-urea]
0.25 to 1 (≈ 0.559 to 2.23 µM)	CCNC(=O)Nc1nc2cc(-c3ccc(NC(C)=O)nc3)cc(-c3ccc(N)cn3)c2s1 [Example 135, N-{5-[7-(5-Amino-pyridin-2-yl)-2-(3-ethyl-ureido)-benzothiazol-5-yl]-pyridin-2-yl}-acetamide]
2 to 16 (≈ 5.3 to 42.4 µM)	CCNC(=O)Nc1nc2cc(-c3cncnc3)cc(-c3cncnc3)c2s1 [Example 147, 1-(5,7-Di-pyrimidin-5-yl-benzothiazol-2-yl)-3-ethyl-urea]
